SMILES strings stand for the structures. Converted amounts (≈) assume the structure as drawn. Read-outs that look alike come from different tables or passages of the source.

The subject of series [1] is rat red blood cell. Kind of series: Hemolytic action. The format is cell-based. Conditions: 10% rat red blood cell stock, 1% DMSO containing saline, 30 minutes at 37° C., absorbance 540 nm. The method, then:
Hemolytic Action […] After incubation for 30 minutes at, 37° C., the mixture was centrifugally separated and the supernatant was obtained. The absorbance (540 nm) of the supernatant was measured. The hemolysis ratio was calculated.

In series [2] the test system is ethanol ulcer in the gland gastric region. Kind of series: Ethanol ulcer. The format is in vivo. Conditions: rats fasted 24 hours, drug oral, 99.5% ethanol 1 ml/rat after one hour, size of ulcer one hour later; for Suppression: dose not given. The method, then: Ethanol Ulcer Rats were fasted for 24 hours and orally administered with a drug. After one hour, 99.5% ethanol (1 ml/rat) was fed through oral administration. After one hour of ethanol administration, the abdomens of the rats were dissected and the size of ulcer in the gland gastric region was measured for each rat.

Series [3] deals with Helicobacter pylori. Kind of series: Anti-Helicobacter-pylori action (agar plate dilution MIC). The following applies: clinically isolated 10 bacterial strains, agar plate dilution method. The class given is cell-based. The method, then: Anti-Helicobacter-pylori Action
Using clinically isolated 10 bacterial strains, the minimum inhibitory concentration (MIC) was measured according to the agar plate dilution method.

Series [4] has as its system HCl-ethanol ulcer in the gland gastric region. Kind of series: HCl-ethanol ulcer. The format is in vivo, Rats. The following applies: rats fasted 24 hours, drug oral, 60% ethanol containing 0.15 N hydrochloric acid 1 ml/rat after one hour, size of ulcer one hour later; dose not given. The method, then: HCl-ethanol Ulcer Rats were fasted for 24 hours and orally administered with a drug. After one hour, 60% ethanol containing 0.15 N hydrochloric acid (1 ml/rat) was perorally administered to each rat. One hour after ethanol administration, the size of ulcer in the gland gastric region was measured for evaluation of anti-ulcer effects of the drug.

The target of series [5] is H/K-ATPase (Oryctolagus cuniculus, UniProt P27112). Kind of series: H/K-ATPase inhibition. The format is biochemical. Conditions: pH 7.4, H/K-ATPase from rabbit gastric mucous membrane. The method, then:
H/K-ATPase Inhibition The inhibitory effect was measured under pH 7.4, by using H/K-ATPase isolated and purified from the rabbit gastric mucous membrane.

For series [6], the system named is gastric acid secretion. Kind of series: Acid-secretion suppression (pyloric ligation). The following applies: pyloric region ligated, drug to the duodenum, gastric juice after four hours, total acidity by titration; dose not given. The format is in vivo, Rats. The method, then:
Acid-secretion Suppression Rats were fasted for 24 hours and the abdomens of the rats were dissected under anesthesia with ether. The pyloric region was ligated and a drug was administered to the duodenum. After four hours, the stomach was removed and the gastric juice was collected to evaluate the acid-secretion suppresssing effects by measuring the total acidity of the gastric juice through titration.

Setting [7] is: Helicobacter pylori, read-out: MIC.

H/K-ATPase, sequence (P27112 whole entry): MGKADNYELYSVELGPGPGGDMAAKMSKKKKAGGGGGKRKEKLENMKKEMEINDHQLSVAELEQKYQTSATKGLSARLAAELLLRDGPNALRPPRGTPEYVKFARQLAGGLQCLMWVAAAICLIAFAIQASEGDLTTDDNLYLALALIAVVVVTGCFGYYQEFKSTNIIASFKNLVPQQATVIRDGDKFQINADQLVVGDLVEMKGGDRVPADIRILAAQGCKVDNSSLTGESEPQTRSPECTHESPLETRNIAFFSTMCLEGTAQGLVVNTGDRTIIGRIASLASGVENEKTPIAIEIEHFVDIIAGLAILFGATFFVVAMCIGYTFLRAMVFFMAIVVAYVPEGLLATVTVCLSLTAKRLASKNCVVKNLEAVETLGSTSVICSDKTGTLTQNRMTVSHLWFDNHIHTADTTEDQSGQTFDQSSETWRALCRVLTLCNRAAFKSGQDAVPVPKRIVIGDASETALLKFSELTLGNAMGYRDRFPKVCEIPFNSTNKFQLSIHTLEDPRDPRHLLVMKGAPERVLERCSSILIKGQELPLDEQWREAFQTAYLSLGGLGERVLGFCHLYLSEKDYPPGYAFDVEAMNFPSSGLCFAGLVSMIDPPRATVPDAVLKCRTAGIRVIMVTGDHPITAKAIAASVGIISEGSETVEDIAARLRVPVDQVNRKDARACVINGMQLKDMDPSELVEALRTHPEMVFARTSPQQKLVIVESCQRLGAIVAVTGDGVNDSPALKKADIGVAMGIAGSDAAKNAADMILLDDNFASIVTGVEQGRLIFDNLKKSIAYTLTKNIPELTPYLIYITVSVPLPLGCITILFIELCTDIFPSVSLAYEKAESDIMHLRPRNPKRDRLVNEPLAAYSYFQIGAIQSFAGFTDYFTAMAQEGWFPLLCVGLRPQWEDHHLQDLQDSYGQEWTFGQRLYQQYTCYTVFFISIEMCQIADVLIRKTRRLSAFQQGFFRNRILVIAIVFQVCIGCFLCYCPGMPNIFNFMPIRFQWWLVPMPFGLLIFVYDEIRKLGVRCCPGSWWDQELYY
H/K-ATPase, sequence (P18597 whole entry partner): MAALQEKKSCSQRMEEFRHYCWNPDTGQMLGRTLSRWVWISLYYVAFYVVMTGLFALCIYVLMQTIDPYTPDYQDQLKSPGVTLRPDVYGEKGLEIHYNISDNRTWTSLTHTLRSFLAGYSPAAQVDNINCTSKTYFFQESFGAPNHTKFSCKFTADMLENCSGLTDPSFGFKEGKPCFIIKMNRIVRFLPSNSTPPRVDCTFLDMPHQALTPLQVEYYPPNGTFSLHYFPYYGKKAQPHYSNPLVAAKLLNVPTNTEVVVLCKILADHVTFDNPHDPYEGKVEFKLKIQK

With `CN(C)CCN(c1ccccc1NCCOc1ccc(Cl)cc1)S(=O)(=O)c1ccc(Cl)cc1.CN(C)CCN(c1ccccc1NCCOc1ccc(Cl)cc1)S(=O)(=O)c1ccc(Cl)cc1.O=C(O)C(O)C(O)C(=O)O` [Example 3, N-(4-Chlorobenzenesulfonyl)-N-(2-dimethylaminoethyl)-N′-[2-(4-chlorophenoxy)ethyl]-o-phenylenediamine ½ Tartaric Acid Salt], the HC50 in series [1] came to 72.3 µg/mL. In addition, in series [2], the ED50 was found to be 14 mg/kg and the Suppression was determined as 88%. The molecule further returned an MIC in series [3] of 0.78 to 3.13 µg/mL. Further, the Suppression in series [4] worked out at 91%.
In series [2], `NCCOCCN(c1ccccc1NCCOc1ccc(Cl)cc1)S(=O)(=O)c1ccc(Cl)cc1.O=C(O)C(O)C(O)C(=O)O` [Example 4, N-[2-(2-Aminoethoxy)ethyl]-N-(4-chlorobenzenesulfonyl)-N′-[2-(4-chlorophenoxy)ethyl]-o-phenylenediamine Tartaric Acid Salt] came in with a Suppression of 85%. For the same molecule, the ED50 in series [2] (read-out: ED50) was 5.3 mg/kg. The MIC in series [3] (setting [7]) was 25 to 50 µg/mL. Further, half-maximal inhibition in series [5] (IC50) required 7.4 µM.
`CS(=O)(=O)N(CCOCCN)c1ccccc1NCCOc1ccc(Cl)cc1` [Example 22, N-[2-(2-Amino)ethoxyethyl]-N-(methanesulfonyl)-N′-[2-(4-chloro)phenoxyethyl]-o-phenylenediamine] had an HC50 in series [1] of 55.7 µg/mL. Besides, in series [5], the IC50 worked out at 190 µM.
In series [2], `CCS(=O)(=O)N(CCOCCN)c1ccccc1NCCOc1ccc(Cl)cc1` [Example 23, N-[2-(2-Amino)ethoxyethyl]-N-(1-ethanesulfonyl)-N′-[2-(4-chlorophenoxy)ethyl]-o-phenylenediamine] registered a Suppression of 98%. This molecule also yielded a half-inhibitory concentration (IC50) in series [5] of 230 µM.
Molecule `CCCS(=O)(=O)N(CCOCCN)c1ccccc1NCCOc1ccc(Cl)cc1` [Example 24, N-[2-(2-Amino)ethoxyethyl]-N-(1-propanesulfonyl)-N′-[2-(4-chlorophenoxy)ethyl]-o-phenylenediamine] gave an HC50 in series [1] of 99.6 µg/mL. The molecule further yielded an IC50 in series [5] of 130 µM.
For `CC(C)S(=O)(=O)N(CCOCCN)c1ccccc1NCCOc1ccc(Cl)cc1` [Example 25, N-[2-(2-Amino)ethoxyethyl]-N-(2-propanesulfonyl)-N′-[2-(4-chlorophenoxy)ethyl]-o-phenylenediamine] the same measures were 120 µg/mL and 140 µM.
As to `CCCCCS(=O)(=O)N(CCOCCN)c1ccccc1NCCOc1ccc(Cl)cc1` [Example 27, N-[2-(2-Amino)ethoxyethyl]-N-(1-pentanesulfonyl)-N′-[2-(4-chlorophenoxy)ethyl]-o-phenylenediamine], the IC50 in series [5] turned out to be 38 µM.
The molecule `CCCCCCS(=O)(=O)N(CCOCCN)c1ccccc1NCCOc1ccc(Cl)cc1` [Example 28, N-[2-(2-Amino)ethoxyethyl]-N-(1-hexanesulfonyl)-N′-[2-(4-chlorophenoxy)ethyl]-o-phenylenediamine] displayed a Suppression in series [2] of 100%. Moreover, the concentration for half-maximal inhibition (IC50) in series [5] worked out at 79 µM.
In series [5], `CCCCCCCS(=O)(=O)N(CCOCCN)c1ccccc1NCCOc1ccc(Cl)cc1` [Example 29, N-[2-(2-Amino)ethoxyethyl]-N-(1-heptanesulfonyl)-N′-[2-(4-chlorophenoxy)ethyl]-o-phenylenediamine] had an IC50 of 5 µM.
For the molecule `CCS(=O)(=O)N(CCN(C)C)c1ccccc1NCCOc1ccc(Cl)cc1.Cl` [Example 30, N-[2-(Dimethylamino)ethyl]-N-ethanesulfonyl-N′-[2-(4-chlorophenoxy)ethyl]-o-phenylenediamine Hydrochloride], the HC50 in series [1] was above 100 µg/mL.
As for `CCCCCCS(=O)(=O)N(CCN(C)C)c1ccccc1NCCOc1ccc(Cl)cc1.Cl` [Example 32, N-[2-(Dimethylamino)ethyl]-N-(1-hexanesulfonyl)-N′-[2-(4-chlorophenoxy)ethyl]-o-phenylenediamine Hydrochloride], in series [1], the HC50 was above 100 µg/mL. The Suppression in series [4] came to 88%.
For the molecule `COc1ccc(S(=O)(=O)N(CCN(C)C)c2ccccc2NCCOc2ccc(Cl)cc2)cc1.Cl` [Example 40, N-[2-(Dimethylamino)ethyl]-N-(4-methoxybenzenesulfonyl)-N′-[2-(4-chlorophenoxy)ethyl]-o-phenylenediamine Hydrochloride], in series [1], the HC50 is above 100 µg/mL. Further, the Suppression in series [4] is listed as 88%.
`CN(C)CCN(c1ccccc1NCCOc1ccc(Cl)cc1)S(=O)(=O)c1ccc(F)cc1.Cl` [Example 42, N-[2-(Dimethylamino)ethyl]-N-(4-fluorobenzenesulfonyl)-N′-[2-(4-chlorophenoxy)ethyl]-o-phenylenediamine Hydrochloride] gave an HC50 in series [1] above 100 µg/mL. Also, the Suppression in series [4] is on record as 91%.
In series [6], `NCCOCCN(c1ccccc1NCCOc1ccc(Cl)cc1)S(=O)(=O)c1ccc(I)cc1` [Example 45, N-[2-(2-Amino)ethoxyethyl]-N-(4-iodobenzenesulfonyl)-N′-[2-(4-chlorophenoxy)ethyl]-o-phenylenediamine] registered a Suppression of 80%.
`CN(C)CCN(c1ccccc1NCCOc1ccccc1)S(=O)(=O)c1ccc(Cl)cc1.Cl` [Example 50, N-[2-(Dimethylamino)ethyl]-N-(4-chlorobenzenesulfonyl)-N′-(2-phenoxyethyl)-o-phenylenediamine Hydrochloride] displayed an HC50 in series [1] above 100 µg/mL. In series [4], this molecule registered a Suppression of 81%.
Molecule `CN(C)CCN(c1ccccc1NCCOc1ccc(Cl)cc1)S(=O)(=O)c1ccccc1Cl.Cl` [Example 51, N-[2-(Dimethylamino)ethyl]-N-(2-chlorobenzenesulfonyl)-N′-[2-(4-chlorophenoxy)ethyl]-o-phenylenediamine Hydrochloride] had an HC50 in series [1] of 84.6 µg/mL. Besides, in series [4], the Suppression stood at 83%.
As to `CN(C)CCN(c1ccccc1NCCOc1ccc(Cl)cc1)S(=O)(=O)c1cccc2cnccc12.Cl` [Example 57, N-[2-(Dimethylamino)ethyl]-N-(5-isoquinolinesulfonyl)-N′-[2-(4-chlorophenoxy)ethyl]-o-phenylenediamine Hydrochloride], in series [1], the HC50 is above 100 µg/mL.
For the molecule `CN(C)CCN(c1ccccc1NCCOc1cccc(Cl)c1)S(=O)(=O)c1ccc(Cl)cc1.Cl` [Example 58, N-[2-(Dimethylamino)ethyl]-N-(4-chlorobenzenesulfonyl)-N′-[2-(3-chlorophenoxy)ethyl]-o-phenylenediamine Hydrochloride], in series [1], the HC50 stood at 71.2 µg/mL. Moreover, in series [4], the Suppression stood at 88%.
In turn, `NCCN(c1cccnc1NCCNc1ccc(Cl)cc1)S(=O)(=O)c1ccc(Cl)cc1` [Example 86, 3-[N-(4-Chlorobenzenesulfonyl)-N-(2-aminoethyl)]amino-2-[2-(4-chlorophenyl)aminoethyl]aminopyridine] came in with a Suppression in series [2] of 79%. The molecule also yielded an IC50 in series [5] of 1.1 µM.
The molecule `CN(C)CCN(c1ccccc1N1CCOCC1)S(=O)(=O)c1ccc(Cl)cc1.Cl` [Example 128, 2-(4-Morpholino)-1-[N-[2-(dimethylamino)ethyl]-N-(4-chlorobenzenesulfonyl)]aminobenzene Hydrochloride Salt] came in with an HC50 in series [1] above 100 µg/mL.
Still for that read-out and setting: the result for `CN(C)CCN(c1ccccc1N1CCNCC1)S(=O)(=O)c1ccc(Cl)cc1.Cl` [Example 129, 2-(1-Piperazino)-1-[N-[2-(dimethylamino)ethyl]-N-(4-chlorobenzenesulfonyl)]aminobenzene Hydrochloride Salt] reads above 100 µg/mL.
In turn, `CN(C)CCN(c1ccccc1N1CCN(c2ccc(Cl)cc2)CC1)S(=O)(=O)c1ccc(Cl)cc1` [Example 132, 2-[4-(4-Chlorophenyl)-1-piperazino]-1-[N-[2-(dimethylamino)ethyl]-N-(4-chlorobenzenesulfonyl)]aminobenzene] displayed an MIC in series [3] of 3.13 to 12.5 µg/mL. The same molecule gave a Suppression in series [4] of 88%.
In turn, `CN(C)CCN(c1ccccc1Sc1ccc(Cl)cc1)S(=O)(=O)c1ccc(Cl)cc1.Cl` [Example 142, 2-(4-Chlorophenylthio)-N-(4-chlorobenzenesulfonyl)-N-(2-dimethylaminoethyl)aniline.HCl] had a Suppression in series [4] of 98%.
With `NCCOCCN(c1ccccc1Oc1ccc(Cl)cc1)S(=O)(=O)c1ccc(Cl)cc1` [Example 144, 1-[N-[2-(2-Aminoethoxy)ethyl]-N-(4-chlorobenzenesulfonyl)]-2-(4-chlorophenoxy)aniline], the MIC in series [3] (setting [7]) was 25 to 50 µg/mL (≈ 51.9 to 104 µM). In addition, in series [5], the concentration for half-maximal inhibition (IC50) worked out at 11.4 µM.
Turning to `CN(C)CCN(c1ccccc1Oc1ccc(Cl)cc1)S(=O)(=O)c1ccc(Cl)cc1.Cl` [Example 145, 1-[N-[2-(Dimethylamino)ethyl]-N-(4-chlorobenzenesulfonyl)]-2-(4-chlorophenoxy)aniline.HCl], the 50% haemolytic concentration (HC50) in series [1] was above 100 µg/mL.

A word on the HC50: it is the concentration giving 50% haemolysis. A high value points to weaker haemolysis. By ED50 is commonly meant the dose at which the effect has come halfway, by size or by number of responders. Usually MIC stands for the lowest concentration that inhibits growth of the organism. The term IC50 denotes the concentration that inhibits the measured activity by half. The low end stands for higher potency, the high end for lower potency.

Source of the values: patent US6403607B1, “Sulfonamide derivatives and drugs containing the same as the active ingredient” (priority 1998, dated 2002).
